The values below come from ChEMBL document CHEMBL5726044, “Imidazopyridazines as Akt kinase inhibitors” (2017).

The target in assay [1] is RAC-alpha serine/threonine-protein kinase (Homo sapiens, UniProt P31749). As to the kind of experiment: (§1) Kinase Assay: For the assay 50 nl of a 100 fold concentrated solution of the test compound in DMSO was pipetted into a black low volume 384 well microtiter plate (Greiner Bio-One, Frickenhausen, Germany), 2 μl of a solution of Akt1 in assay buffer [50 mM TRIS/HCl pH 7.5, 5 mM MgCl2, 1 mM dithiothreitol, 0.02% (v/v) Triton X-100 (Sigma)] were added and the mixture was incubated for 15 min at 22° C. to allow pre-binding of the test compounds to the enzyme before the start of the kinase reaction. Then the kinase reaction was started by the addition of 3 μl of a solution of adenosine-tri-phosphate (ATP, 16.7 μM=>final conc. in the 5 μl assay volume is 10 μM) and substrate (1.67 μM=>final conc. in the 5 μl assay volume is 1 μM) in assay buffer and the resulting mixture was incubated for a reaction time of 60 min at 22° C. The concentration of Akt1 in the assay was adjusted depending of the activity of the enzyme lot and was chosen appropriate to have the assay in the linear range, typical enzyme concentrations were in the range of about 0.05 ng/μl (final conc. in the 5 μl assay volume). The reaction was stopped by the addition of 5 μl of a solution of HTRF detection reagents (200 nM streptavidine-XL665 [Cisbio] and 1.5 nM anti-phosho-Serine antibody [Millipore, cat. #35-001] and 0.75 nM LANCE Eu-W 1024 labeled anti-mouse IgG antibody [Perkin Elmer]) in an aqueous EDTA-solution (100 mM EDTA, 0.1% (w/v) bovine serum albumin in 50 mM HEPES/NaOH pH 7.5). The resulting mixture was incubated 1 h at 22° C. to allow the binding of the biotinylated phosphorylated peptide to the streptavidine-XL665 and the antibodies. Subsequently the amount of phosphorylated substrate was evaluated by measurement of the resonance energy transfer from the anti-mouse-IgG-Eu-Chelate to the streptavidine-XL665. Therefore, the fluorescence emissions at 620 nm and 665 nm after excitation at 350 nm was measured in a HTRF reader, e.g. a Rubystar (BMG Labtechnologies, Offenburg, Germany) or a Viewlux (Perkin-Elmer). In general terms: Time-resolved FRET reads energy transfer from a long-lived donor to a nearby acceptor.
Chain of RAC-alpha serine/threonine-protein kinase (P31749 whole entry): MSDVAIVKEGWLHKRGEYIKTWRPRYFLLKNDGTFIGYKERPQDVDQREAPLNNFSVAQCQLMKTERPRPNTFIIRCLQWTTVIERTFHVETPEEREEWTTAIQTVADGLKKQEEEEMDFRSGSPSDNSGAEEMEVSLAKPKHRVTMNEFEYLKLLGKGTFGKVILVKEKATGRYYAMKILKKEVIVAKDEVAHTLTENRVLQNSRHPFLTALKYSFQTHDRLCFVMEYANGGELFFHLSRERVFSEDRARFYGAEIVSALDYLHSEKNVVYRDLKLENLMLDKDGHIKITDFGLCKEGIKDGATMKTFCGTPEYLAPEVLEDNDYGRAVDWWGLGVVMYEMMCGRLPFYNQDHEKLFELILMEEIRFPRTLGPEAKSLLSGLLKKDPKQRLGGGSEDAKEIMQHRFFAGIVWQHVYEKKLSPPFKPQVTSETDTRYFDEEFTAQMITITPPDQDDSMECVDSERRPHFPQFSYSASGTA

Assay [2] concerns the target RAC-beta serine/threonine-protein kinase (Homo sapiens, UniProt P31751). Described as §1, with “Assay: His-tagged human recombinant kinase full-length Akt2 expressed in insect cells and activated by PDK1 was purchased form Invitrogen (part number PV 3975). As substrate for the kinase reaction the biotinylated peptide biotin-Ahx-[…] (C-terminus in amide form) was used which can be purchased e.g. from the company Biosynthan GmbH (Berlin-Buch, Germany).” for “Assay:”, “Akt2” for “Akt1”, “0.2” for “0.05”, “antibodies.” for “antibodies. Subsequently the amount of phosphorylated substrate was evaluated by measurement of the resonance energy transfer from the anti-mouse-IgG-Eu-Chelate to the streptavidine-XL665. Therefore, the fluorescence emissions at 620 nm and 665 nm after excitation at 350 nm was measured in a HTRF reader, e.g. a Rubystar (BMG Labtechnologies, Offenburg, Germany) or a Viewlux (Perkin-Elmer).”.

Chain of RAC-beta serine/threonine-protein kinase (P31751 whole entry): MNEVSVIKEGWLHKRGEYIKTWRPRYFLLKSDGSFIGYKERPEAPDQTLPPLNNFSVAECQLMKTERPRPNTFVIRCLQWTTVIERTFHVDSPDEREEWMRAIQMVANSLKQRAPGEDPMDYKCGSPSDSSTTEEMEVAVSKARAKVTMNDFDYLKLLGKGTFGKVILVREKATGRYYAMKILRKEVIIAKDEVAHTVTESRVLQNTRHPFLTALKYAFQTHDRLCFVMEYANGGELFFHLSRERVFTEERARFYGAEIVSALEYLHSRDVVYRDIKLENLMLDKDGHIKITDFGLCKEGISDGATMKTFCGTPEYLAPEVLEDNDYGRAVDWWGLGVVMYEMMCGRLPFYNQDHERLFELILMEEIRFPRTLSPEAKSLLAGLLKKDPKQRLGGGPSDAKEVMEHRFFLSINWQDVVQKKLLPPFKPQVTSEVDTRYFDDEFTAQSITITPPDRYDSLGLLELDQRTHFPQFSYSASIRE

By IC50 is commonly meant the point on the concentration scale where inhibition reaches its midpoint. For the compound `NC(=O)c1ccnn2c(-c3ccccc3)c(-c3ccc(C4(N)CCC4)cc3)nc12`, the IC50 in assay [1] worked out at 65 nM; in assay [2] it was 110 nM.

Consider `NC1(c2ccc(-c3nc4ccc(C(F)(F)F)nn4c3-c3ccccc3)cc2)CCC1`, for which the values for the IC50 in assay [1] and in assay [2] were 120 nM and 70 nM, respectively.

Consider `CCOc1nn2c(-c3ccccc3)c(-c3ccc(C4(N)CCC4)cc3)nc2c(C)c1C`, for which the concentration for half-maximal inhibition (IC50) in assay [1] turned out to be 45 nM; in assay [2], 56 nM.
